Consider 79 compounds from ChEMBL document CHEMBL3988181, “GlaxoSmithKline Published Kinase Inhibitor Set 2 Onchocerca lienalis Screening Data”.

The experiment is described as follows: GSK PKIS2: Screen against O. lienalis microfilariae, single point, at 3.1uM to assess reduction in motility. Compounds were also tested for cytotoxicity against Rhesus Monkey LLCMK2 cells. The format is functional, Onchocerca lienalis, LLC-MK2. As to conditions: CELL_LINE LLCMK2; CELL_SUPPLIER ECACC; CONC 3.1 uM; ORGANISM_SUPPLIER Extracted from peri-umbilical skin obtained from naturally infected cattle in the UK; temperature 37 degree C.

For `Fc1cccc(COc2ccc(Nc3ncnc4nn5ccccc5c34)cc2Cl)c1`, the “MOTILITY REDUCTION/CYTOTOXICITY” value is given as 0%.
Take `CCN1CCN(CCCC(=O)Nc2n[nH]c3nc(-c4ccc(O)cc4)c(Br)cc23)CC1`: the “MOTILITY REDUCTION/CYTOTOXICITY” value is given as 20%.
Take `CCn1c(-c2nonc2N)nc2cncc(CNC3CCNCC3)c21`: the “MOTILITY REDUCTION/CYTOTOXICITY” value stood at 0%.
With `Cc1c(Cn2c(C)nn3c(=O)cc(N4CCO[C@H](C)C4)nc23)cccc1C(F)(F)F`, the “MOTILITY REDUCTION/CYTOTOXICITY” value was found to be 0%.
On to `COc1cc(Nc2ccnc3ccc(C(F)(F)F)cc23)cc(OC)c1OC`, for which the “MOTILITY REDUCTION/CYTOTOXICITY” value worked out at 0%.
With `CCOc1nccc(-c2c(-c3ccc(F)cc3)ncn2C2CCNCC2)n1`, the “MOTILITY REDUCTION/CYTOTOXICITY” value is reported as 0%.
As to `NS(=O)(=O)CCc1cccc(Nc2nccc(-c3c(-c4cccc(NC(=O)c5c(F)cccc5F)c4)nn4ccccc34)n2)c1`, the “MOTILITY REDUCTION/CYTOTOXICITY” value was 33.4%.
For the compound `COc1ccc(S(=O)(=O)NC2CCN(c3cc(C)nc(Nc4cccc(C#N)c4)n3)CC2)cc1`, the “MOTILITY REDUCTION/CYTOTOXICITY” value is recorded as 0%.
Consider `O=C(c1ccc(-c2cc(-c3c[nH]nc3-c3ccccn3)ccn2)cc1)N1CCOCC1`, for which the “MOTILITY REDUCTION/CYTOTOXICITY” value is on record as 0%.
Turning to `COc1cc(Nc2nccc(N3CCC(NC(=O)C(C)c4ccc(Cl)cc4)C3)n2)cc(OC)c1OC` (centres undefined), the “MOTILITY REDUCTION/CYTOTOXICITY” value stood at 66.7%.
With `FC(F)(F)c1ccccc1-c1cc(-c2c[nH]nc2-c2ccccn2)ccn1`, the “MOTILITY REDUCTION/CYTOTOXICITY” value was found to be 0%.
As to `Cc1c2ccc(N(C)c3ccnc(Nc4cccc(S(N)(=O)=O)c4)n3)cc2nn1Cc1ccccc1`, the “MOTILITY REDUCTION/CYTOTOXICITY” value is 0%.
With `COc1cccc(CNC(=O)NC2CCN(c3ccnc(Nc4ccc(F)cc4)n3)C2)c1` (centres undefined), the “MOTILITY REDUCTION/CYTOTOXICITY” value was determined as 33.4%.
As for `COc1cc2ncnc(Nc3ccc4nc(-c5ccccc5)[nH]c4c3)c2cc1OC`, the “MOTILITY REDUCTION/CYTOTOXICITY” value came out at 73.4%.
As for `COC(=O)Nc1nc2ccc(Oc3ccc(NC(=O)Nc4cc(F)ccc4F)cc3)cc2[nH]1`, the “MOTILITY REDUCTION/CYTOTOXICITY” value was determined as 40%.
Take `COc1ccc(Nc2nccc(N3CCC(NC(=O)C(C)c4ccc(Cl)cc4)CC3)n2)cc1` (centres undefined): the “MOTILITY REDUCTION/CYTOTOXICITY” value came to 33.4%.
As for `CN1CCC(n2cnc(-c3ccc(F)cc3)c2-c2ccnc(NC3CCNCC3)n2)CC1`, the “MOTILITY REDUCTION/CYTOTOXICITY” value was determined as 0%.
With `Cc1occc1-c1ncc(OC[C@@H](N)Cc2c[nH]c3ccccc23)cc1-c1ccc2[nH]nc(C)c2c1`, the “MOTILITY REDUCTION/CYTOTOXICITY” value is recorded as 0%.
`Cc1ccc(C(=O)Nc2ccc(Nc3ccnc4cc(-c5ccccn5)ccc34)cc2O)cc1`: the “MOTILITY REDUCTION/CYTOTOXICITY” value turned out to be 0%.
On to `NS(=O)(=O)c1cccc(-c2ccc3ncc(N4CCOCC4)nc3c2)c1`, for which the “MOTILITY REDUCTION/CYTOTOXICITY” value was 0%.
In the case of `N#Cc1cnc2cc(-c3cnc(CNCCN4CCOCC4)s3)ccc2c1Nc1ccc(Oc2ccccc2)cc1`, the “MOTILITY REDUCTION/CYTOTOXICITY” value was 16.7%.
As for `COc1ccc(-c2nc3n(c2-c2ccncc2)CCC3)cc1`, the “MOTILITY REDUCTION/CYTOTOXICITY” value came to 0%.
Regarding `COc1cc2nccc(Nc3cccc(Oc4ccccc4)c3)c2cc1OC`, the “MOTILITY REDUCTION/CYTOTOXICITY” value is given as 0%.
Turning to `Cc1ccc(C)c(Oc2nccc(-c3c(-c4ccc(F)cc4)ncn3C3CCNCC3)n2)c1`, the “MOTILITY REDUCTION/CYTOTOXICITY” value came to 26.7%.
In the case of `Fc1cc(Cl)ccc1Nc1ccnc2cc(-c3ccc(CN4CCCCC4)o3)ccc12`, the “MOTILITY REDUCTION/CYTOTOXICITY” value was determined as 16.7%.
For the compound `N#Cc1ccc(CCNc2nccc(-c3cccc(CN4CCNCC4)c3)n2)cc1`, the “MOTILITY REDUCTION/CYTOTOXICITY” value was determined as 0%.
With `Fc1cccc(COc2ccc(Nc3ncnc4sc(-c5ccc[nH]5)cc34)cc2Cl)c1` the figure was 100%.
Take `COC(=O)c1cccc(NC(=O)NC2CCN(c3ccnc(Nc4ccc(F)cc4)n3)C2)c1` (centres undefined): the “MOTILITY REDUCTION/CYTOTOXICITY” value stood at 0%.
Consider `CN(C)CC(O)COc1ccc(Nc2nccc(-c3cnn4nc(N5CCOCC5)ccc34)n2)cc1` (centres undefined), for which the “MOTILITY REDUCTION/CYTOTOXICITY” value was 0%.
Turning to `COc1ccc(Nc2nccc(N3CCC(NC(=O)Nc4ccc5c(c4)OCO5)C3)n2)cc1` (centres undefined), the “MOTILITY REDUCTION/CYTOTOXICITY” value came out at 20%.
On to `Cc1ccc(C(=O)NC2CCCC2)cc1-c1ccc(C(=O)NCC2CC2)cc1`, for which the “MOTILITY REDUCTION/CYTOTOXICITY” value was determined as 20%.
For the compound `C[C@@H](Oc1cc(-n2cnc3ccc(NC(=O)NC(C)(C)C)cc32)sc1C(N)=O)c1ccccc1Cl`, the “MOTILITY REDUCTION/CYTOTOXICITY” value turned out to be 60%.
With `Cc1cccc(-c2nc(Nc3ccc4c(cnn4C)c3)c3ccccc3n2)n1`, the “MOTILITY REDUCTION/CYTOTOXICITY” value came out at 100%.
In the case of `COc1ccc(NC(=O)c2ccc(-c3cc(-c4nnc(C)o4)ccc3C)cc2)cc1` it was 33.4%; in that of `Nc1nccc2scc(-c3ccc4c(c3)CCN4C(=O)Cc3cc(F)ccc3F)c12`, 0%.
With `CC(C)c1nc(-c2cccc(NS(=O)(=O)c3c(F)cccc3F)c2F)c(-c2ccnc(Nc3ccc(N4CCOCC4)nc3)n2)s1`, the “MOTILITY REDUCTION/CYTOTOXICITY” value was found to be 93.4%.
In the case of `CC(=O)Nc1ccc(COc2ccc(Nc3ccnc4cc(-c5ccccn5)ccc34)cc2)cc1` it was 100%; in that of `CC(C)c1cc(-c2ccc3c(N)n[nH]c3c2)nc(N)n1`, 0%; in that of `O=C(Nc1cccc(-c2nn3ncccc3c2-c2ccnc(Nc3cccc(C(F)(F)F)c3)n2)c1)c1c(F)cccc1F`, 0%.
As to `NC[C@H](CC1CCCCC1)NC(=O)c1cc(Br)c(-c2ccnc3[nH]ccc23)s1`, the “MOTILITY REDUCTION/CYTOTOXICITY” value was found to be 0%.
`O=C1NC(=O)C(c2ccc(Cl)cc2)=C1Nc1ccc(O)cc1`: the “MOTILITY REDUCTION/CYTOTOXICITY” value was determined as 0%.
Consider `CCn1c(-c2nonc2N)nc2c(C#CC(C)(C)O)ncc(OCCCCN)c21`, for which the “MOTILITY REDUCTION/CYTOTOXICITY” value stood at 13.4%.
In the case of `COc1ccc2nc(-c3cccc(C)n3)nc(Nc3ccncc3)c2c1` it was 0%; in that of `CS(=O)(=O)CCNCc1ccc(-c2ccc3ncnc(Nc4ccc(OCc5ccccc5)c(Cl)c4)c3c2)o1`, 20%.
`CN(C)c1cc(-c2ccc3c(N)n[nH]c3c2)nc(N)n1`: the “MOTILITY REDUCTION/CYTOTOXICITY” value came out at 0%.
For the compound `COc1cccc(-n2cnc3c(N)ncnc32)c1`, the “MOTILITY REDUCTION/CYTOTOXICITY” value was determined as 0%.
With `c1ccc(-c2n[nH]cc2Nc2ccnc3ccccc23)nc1`, the “MOTILITY REDUCTION/CYTOTOXICITY” value worked out at 100%.
With `Cc1ccc(NC(=O)Nc2cccc(Cl)c2)cc1-c1ccc(C(=O)Nc2ccncc2)cc1` the figure was 33.4%.
In the case of `CC(C)c1nc(-c2cccc(NS(=O)(=O)c3ccccc3)c2)c(-c2ccnc(Nc3ccc4c(c3)CN(C)CC4)n2)s1` it was 86.7%.
For `c1ccc(-c2cc3ccncc3cc2OC2CCNCC2)cc1`, the “MOTILITY REDUCTION/CYTOTOXICITY” value amounted to 93.4%.
With `CCn1c(-c2ccccc2)nc2cnccc21` the figure was 0%; with `CNc1ncnc2[nH]ncc12`, 0%; with `O=C(Nc1n[nH]c2cc(-c3cccs3)ccc12)C1CC1`, 0%.
For the compound `N#Cc1cccc(C(=O)NC2CCN(c3ccnc(Nc4ccc(F)cc4)n3)C2)c1` (centres undefined), the “MOTILITY REDUCTION/CYTOTOXICITY” value was 20%.
In the case of `O=C(Nc1n[nH]c2nc(-c3ccc(O)cc3)ccc12)C1CC1` it was 33.4%; in that of `COC(=O)Nc1nc2cc(Oc3ccc(NC(=O)Nc4cc(C(F)(F)F)ccc4F)cc3)ccc2[nH]1`, 0%.
`O=C(Nc1ccc2c(c1)OCO2)NC1CCN(c2ccnc(Nc3ccc(F)cc3)n2)C1` (centres undefined): the “MOTILITY REDUCTION/CYTOTOXICITY” value turned out to be 33.4%.
With `O=C(Nc1n[nH]c2cc(-c3ccco3)ccc12)C1CC1`, the “MOTILITY REDUCTION/CYTOTOXICITY” value is listed as 0%.
In the case of `Oc1ccc(-c2[nH]c(-c3ccccc3)nc2-c2ccncc2)cc1` it was 0%; in that of `CCOC(=O)N1CCC(n2cnc(-c3ccc(F)cc3)c2-c2ccnc(N)n2)CC1`, 0%; in that of `Cc1ccn2nc(-c3ccc(F)cc3)c(-c3ccncc3)c2c1`, 0%.
As to `O=c1[nH]cc(-c2ccc(N3CCOCC3)cc2)c2sc(-c3cn[nH]c3)cc12`, the “MOTILITY REDUCTION/CYTOTOXICITY” value turned out to be 0%.
`O=C(Nc1n[nH]c2nc(-c3ccco3)c(Br)cc12)c1ccc(CN2CCCC2)cc1`: the “MOTILITY REDUCTION/CYTOTOXICITY” value is given as 0%.
As for `O=C1NC(=O)C(c2ccc(Cl)cc2)=C1Nc1cccc(Cl)c1`, the “MOTILITY REDUCTION/CYTOTOXICITY” value was found to be 33.4%.
Regarding `O=C1NC(=O)C(c2ccccc2Cl)=C1Nc1cccc(Cl)c1`, the “MOTILITY REDUCTION/CYTOTOXICITY” value is on record as 0%.
For the compound `COc1cccc(-c2cc(-c3c[nH]nc3-c3ccccn3)ccn2)c1`, the “MOTILITY REDUCTION/CYTOTOXICITY” value is listed as 0%.
With `Cc1cccc2c(-c3ccncc3)c(-c3ccc(F)cc3)nn12`, the “MOTILITY REDUCTION/CYTOTOXICITY” value turned out to be 46.7%.
Take `Cc1c(Cn2c3ccccc3n3c(=O)cc(N4CCOCC4)nc23)cccc1C(F)(F)F`: the “MOTILITY REDUCTION/CYTOTOXICITY” value was 0%.
In the case of `COc1cccc(C2=C(Nc3ccc(Cl)c(C(=O)O)c3)C(=O)NC2=O)c1` it was 0%; in that of `Cc1ccc(-n2nc(C(C)(C)C)cc2NC(=O)Nc2ccc(OCCN3CCOCC3)c3ccccc23)cc1` [DORAMAPIMOD], 33.4%.
For the compound `C[C@@H]1CC[C@@H](C(=O)Nc2ccccc2)CN1c1cc(-c2ccc3c(N)n[nH]c3c2)nc(N)n1`, the “MOTILITY REDUCTION/CYTOTOXICITY” value was 0%.
As for `COc1ccc(C2=C(Nc3cccc(Cl)c3)C(=O)NC2=O)cc1`, the “MOTILITY REDUCTION/CYTOTOXICITY” value was 0%.
Consider `COc1cc(Nc2ccnc3cc(-c4ccncc4)ccc23)cc(OC)c1OC`, for which the “MOTILITY REDUCTION/CYTOTOXICITY” value was found to be 33.4%.
Consider `Cn1cc(-c2ccc3c(c2)CCN3C(=O)Cc2cc(F)cc(F)c2F)c2c(N)ncnc21`, for which the “MOTILITY REDUCTION/CYTOTOXICITY” value is reported as 0%.
As to `Fc1cc(Cl)ccc1Nc1ccnc2cc(-c3ccc(CN4CCSCC4)o3)ccc12`, the “MOTILITY REDUCTION/CYTOTOXICITY” value is recorded as 33.4%.
Regarding `CCn1c(-c2nonc2N)nc2c(-c3ccccc3)ncc(OCCCN)c21`, the “MOTILITY REDUCTION/CYTOTOXICITY” value stood at 100%.
Take `COc1ccc(C)c(Nc2ccnc(Nc3ccc(-c4cnc[nH]4)cc3)n2)c1`: the “MOTILITY REDUCTION/CYTOTOXICITY” value came to 0%.
With `O=C(Nc1ccccc1F)NC1CCN(c2ccnc(Nc3ccc(F)cc3)n2)CC1` the figure was 53.4%.
Consider `CN(C)CCOc1ccc(-c2cc(-c3ccc(Cl)c(O)c3)c(-c3ccncc3)[nH]2)cc1`, for which the “MOTILITY REDUCTION/CYTOTOXICITY” value is listed as 0%.
